Results as given in the NIST ThermoML archive (doi:10.1021/acs.jced.9b00021).

Assay: wn = mass fraction of the nth substance listed
Details: 400 kPa, Liquid, Concentric cylinders viscometry

CN(CCO)CCO [N-methyldiethanolamine] + O
viscosity [mPa·s]
Details	w1 = 0.3	w1 = 0.4	w1 = 0.5	w1 = 0.6	w1 = 0.7	w1 = 0.8	w1 = 0.9	w1 = 0.95	w1 = 1
298.15 K	3.02	5.21	9.13	16.91	30.09	53.42	75.12	76.07	73.1
303.15 K	2.64	4.41	7.51	13.4	23.11	40.03	56.05	57.55	55.89
308.15 K	2.28	3.71	6.17	10.73	18.01	30.42	42.37	44.18	43.45
313.15 K	1.97	3.15	5.13	8.68	14.22	23.47	32.56	34.3	34.15
318.15 K	1.75	2.73	4.34	7.15	11.42	18.44	25.45	27.04	27.15
323.15 K	1.54	2.36	3.68	5.92	9.26	14.67	20.13	21.55	21.82
328.15 K	1.38	2.07	3.18	4.99	7.64	11.84	16.18	17.38	17.79
333.15 K	1.24	1.83	2.76	4.23	6.36	9.67	13.16	14.14	14.63
338.15 K	1.15	1.65	2.43	3.66	5.38	8.02	10.81	11.64	12.2
343.15 K	1.06	1.49	2.16	3.18	4.59	6.71	8.98	9.66	10.21
348.15 K	0.97	1.35	1.92	2.77	3.94	5.66	7.52	8.09	8.6
353.15 K	0.89	1.22	1.72	2.43	3.41	4.81	6.35	6.82	7.31
358.15 K	0.84	1.13	1.58	2.18	3	4.16	5.44	5.83	6.29
363.15 K	0.81	1.05	1.45	1.97	2.65	3.63	4.69	5.01	5.43
368.15 K	0.79	0.97	1.33	1.77	2.37	3.18	4.09	4.33	4.72
373.15 K	0.76	0.91	1.23	1.61	2.12	2.82	3.58	3.77	4.12
